Test results: patent US20040214785A1, “Surface sanitizing compositions with improved antimicrobial performance” (priority 2003, published 2004)
≈ marks a conversion by molar mass, not a printed value.

Columns and labels:
[1] = test system: bacterial counts on hands; settings: Triclosan (0.1%), after a 1-minute hygienic handwash; cited from earlier work
S. aureus = settings: against S. aureus; Johnson et al. 2002; cited from earlier work
[2] = test system: methicillin-resistant Staphylococcus aureus (MRSA); assay: Bactericidal assay (MBC), subculture of dilutions on TSB agar; assay type: cell-based; settings: challenge with 1×10^4 MRSA
Method: S. aureus maintained as a frozen culture with 10% (v/v) glycerol at −80° C. was thawed and then propagated on trypticase soy broth (TSB) or agar plates at room temperature (R.T.); determinations for Most Probable Number (MPN) in given samples were performed at 37° C., using standard assay techniques.
Tested sanitizers comprised commercially available gel products (i.e., “Brand A” and “Brand B”) from two manufacturers; these gels were comprised substantially of ethanol (60-70% w/w). […] Additional prototype liquid preparations (“Brand C1” and “Brand C2”) were substantially comprised of mixtures of alcohol (60-70% ethanol or isopropanol, w/w) combined with triclosan (approximately 0.04% w/w). Finally, triclosan was added to certain of the commercially available products (Brand B) to yield modified products containing triclosan at a level of approximately 0.04% w/w (“Brand B1”).
Killing of bacteria at each dilution (i.e., minimum bactericidal concentration, MBC) was determined by removing 5 μL aliquots and subculturing these on the surface of a TSB agar plate. Plates were incubated overnight at 37° C. and observed for growth. Studies were performed at 30 sec, at 5, 10, and 30 min, and at 1, 2, 4, and 8 hours after adding the challenge bacteria.

E. coli = settings: against E. coli; Johnson et al. 2002; cited from earlier work
[3] = topically-applied; cited from earlier work
bacteria = settings: MMWR/RR-16; cited from earlier work
[4] = cited from earlier work

Oc1cc(Cl)ccc1Oc1ccc(Cl)cc1Cl [Triclosan, 2,4,4′-trichloro-2′-hydroxy-diphenyl ether]
reduction of bacterial counts on hands [1]: 2.8 log10
MBC (S. aureus): 7.5 µg/mL (≈ 25.9 µM)
dilution at which preparation is still bactericidal [2]: ≤ 10 fold
MBC (E. coli): 1.3 µg/mL (≈ 4.49 µM)
penetration into human skin [3]: minimal penetration into human skin
minimum bactericidal concentrations (bacteria): 25 to 500 µg/mL
solubility in water [4]: substantially insoluble in water
